{"source": "patent US20080267996A1", "about": "(priority 2005, published 2008)", "key": {"[1]": {"test_system": "HBs peptide pools (PreS2 + S ayw) and HbsAg protein", "experiment": "Ex vivo IFN-gamma ELISPOT of patient PBMC", "type": "in vivo, human", "settings": "Part 2 Groups A, B, C", "protocol": "ELISPOT Assays were carried out by Cellular Technology Limited (CTL Laboratory LLC. 10515 Carnegie Ave., Suite 503 Cleveland Ohio 44106, USA) using the following assay conditions:\nThe following peptides were pooled and used as antigens:\nThe HBs series of peptides are arranged into 4 distinct pools of peptides, each containing up to 12 total peptides:\nThe entire HbsAg protein was also used as an antigen.\nAn ELISPOT response to a peptide pool (or HbsAg protein) was considered to have occurred when the mean +/− standard deviation for the peptide pool, or HbsAg protein, was greater than the mean +3 standard deviations of that patient's negative control."}, "HBsAg": {"test_system": "HBsAg", "experiment": "HBsAg / Anti-HBs serotyping (VITROS ECi)", "type": "in vivo, hepatitis B virus", "settings": "Week 14/18; Part 2 Group C (n 11)", "protocol": "Serotyping was performed using a VITROS ECi Immunodiagnostic System."}}, "data": [{"molecule": "Nc1ccn([C@@H]2CS[C@H](CO)O2)c(=O)n1", "note": "[lamivudine, Lamivudine]", "values": [{"measurement": "baseline immunological responses (detected prior to treatment, unchanged or reduced)", "setting": "[1]", "result": 3}, {"measurement": "boosted immunological responses (of baseline responses)", "setting": "[1]", "result": "5/8"}, {"measurement": "de novo immunological responses (of baseline non-responders)", "setting": "[1]", "result": "0/3"}, {"measurement": "HBsAg−, percent of patients", "setting": "HBsAg", "result": 9, "unit": "%"}]}]}
